{"source": "patent EP4459286A1", "about": "“KIT FOR QUANTITATIVELY DETERMINING TACROLIMUS IN WHOLE BLOOD BY LOW-RESISTANCE LATEX-ENHANCED IMMUNE COMPETITION METHOD, AND USE THEREOF” (SHANGHAI YUNZE BIOTECHNOLOGY CO., LTD, priority 2021, dated 2023)", "origin": "cited, not measured here", "key": {"[1]": {"details": "compared with cyclosporine"}, "[2]": {"details": "rescue therapy, cyclosporine ineffective"}}, "note": "Read-outs that look alike come from different tables or passages of the source.", "data": [{"smiles": "C=CC[C@@H]1/C=C(\\C)C[C@H](C)C[C@H](OC)[C@H]2O[C@@](O)(C(=O)C(=O)N3CCCC[C@H]3C(=O)O[C@H](/C(C)=C/[C@@H]3CC[C@@H](O)[C@H](OC)C3)[C@H](C)[C@@H](O)CC1=O)[C@H](C)C[C@@H]2OC", "note": "[tacrolimus, Tacrolimus]", "values": [{"measurement": "effect of preventing rejection in various organ transplants", "setting": "[1]", "value": "superior to that of cyclosporine"}, {"measurement": "success rate", "setting": "[2]; kidney transplantation patients", "value": 74, "unit": "%"}, {"measurement": "success rate", "setting": "[2]; liver transplantation patients", "value": 87, "unit": "%"}]}]}
